How the values were obtained:
Assay type in all cases: in vivo
[1] = test system: foxtail, giant (giant foxtail, Setaria faberii); assay: Test A greenhouse herbicide test, pre- and postemergence
Summary of the method: (§1)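 Seeds sown in loam–sand blend got a preemergence directed soil spray of compound in non-phytotoxic solvent with surfactant. Postemergence treatment was given at 2–10 cm, one- to two-leaf stage. After ~10 d in greenhouse, injury was rated visually vs untreated controls, 0 (no effect) to 100 (complete control).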

[2] = test system: kochia (Kochia scoparia); assay: as above
Summary of the method: as §1

[3] = test system: pigweed (Amaranthus retroflexus); assay: as above
Summary of the method: as §1

[4] = test system: ragweed (common ragweed, Ambrosia elatior); assay: as above
Summary of the method: as §1

[5] = test system: wheat (Triticum aestivum); assay: as above; conditions: Postemergence
Summary of the method: as §1

[6] = test system: blackgrass (Alopecurus myosuroides); assay: Test C greenhouse herbicide test, pre- and postemergence
Excerpt: (§2) Seeds of plant species selected from blackgrass (Alopecurus myosuroides), ryegrass, Italian (Italian ryegrass, Lolium multiflorum), wheat (winter wheat, Triticum aestivum), galium (catchweed bedstraw, Galium aparine), corn (Zea mays), large crabgrass, large (large crabgrass, Digitaria sanguinalis), foxtail, giant (giant foxtail, Setaria faberii), johnsongrass (Sorghum halepense), lambsquarters (Chenopodium album), morningglory (Ipomoea coccinea), nutsedge, yellow (yellow nutsedge, Cyperus esculentus), pigweed (Amaranthus retroflexus), ragweed (common ragweed, Ambrosia elatior), soybean (Glycine max), barnyardgrass (Echinochloa crus-galli), oilseed rape (Brassica napus), waterhemp (common waterhemp, Amaranthus rudis), and velvetleaf (Abutilon theophrasti) were planted into a blend of loam soil and sand and treated preemergence with test chemicals formulated in a non-phytotoxic solvent mixture which included a surfactant.
(§3) At the same time, plants selected from these crop and weed species and also chickweed (common chickweed, Stellaria media), kochia (Kochia scoparia), and oat, wild (wild oat, Avena fatua), were planted in pots containing Redi-Earth® planting medium (Scotts Company, 14111 Scottslawn Road, Marysville, Ohio 43041) comprising spaghnum peat moss, vermiculite, wetting agent and starter nutrients and treated with postemergence applications of test chemicals formulated in the same manner. Plants ranged in height from 2 to 18 cm (1- to 4-leaf stage) for postemergence treatments. Treated plants and controls were maintained in a greenhouse for 13 to 15 d, after which time all species were compared to controls and visually evaluated. Plant response ratings, summarized in Table C, are based on a scale of 0 to 100 where 0 is no effect and 100 is complete control. A dash (-) response means no test result.

[7] = test system: corn (Zea mays); assay: as above
Excerpt: as §2, §3

[8] = test system: morningglory (Ipomoea coccinea); assay: as above
Excerpt: as §2, §3

[9] = test system: pigweed (Amaranthus retroflexus); assay: as above
Excerpt: as §2, §3

[10] = test system: ryegrass, Italian (Italian ryegrass, Lolium multiflorum); assay: as above
Excerpt: as §2, §3

[11] = test system: velvetleaf (Abutilon theophrasti); assay: as above
Excerpt: as §2, §3

[12] = Postemergence, 125 g ai/ha, visual rating after approx. 10 d, 0 to 100 scale (0 no effect, 100 complete control)
[13] = Postemergence, 500 g ai/ha, 0 to 100 scale, 0 is no effect, 100 is complete control
[14] = Preemergence, 125 g ai/ha, 0 to 100 scale where 0 is no effect and 100 is complete control
[15] = Preemergence, 500 g ai/ha, 0 to 100 scale, 0 no effect, 100 complete control
[16] = Postemergence, 31 g ai/ha, 0 to 100 scale (0 no effect, 100 complete control)
[17] = Postemergence, 125 g ai/ha, scale 0 to 100, 0 is no effect, 100 is complete control
[18] = Postemergence, 250 g ai/ha, scale 0 to 100, 0 no effect, 100 complete control, 13 to 15 d
[19] = Preemergence, 31 g ai/ha, scale 0 to 100, 0 is no effect, 100 is complete control
[20] = Preemergence, 62 g ai/ha, scale 0 to 100, 0 is no effect, 100 is complete control
[21] = Preemergence, 125 g ai/ha, scale 0 to 100, 0 is no effect, 100 is complete control
[22] = Preemergence, 250 g ai/ha, scale 0 to 100, 0 no effect, 100 complete control
[23] = postemergence, 62 g ai/ha, scale 0 to 100, 0 no effect, 100 complete control

Structure (SMILES): Cc1ccc2ccccc2c1-c1c(O)c(Br)nn(C)c1=O [Compound 23]
- Plant response rating, Foxtail, Giant [1, 12]: 90
- Foxtail, Giant plant response rating [1, 13]: 90
- Foxtail, Giant plant response rating [1, 14]: 90
- Plant response rating, Foxtail, Giant [1, 15]: 90
- Plant response rating, Kochia [2, 12]: 100
- Kochia plant response rating [2, 13]: 100
- Kochia plant response rating [2, 14]: 80
- Plant response rating, Kochia [2, 15]: 100
- Plant response rating, Pigweed [3, 12]: 100
- Pigweed plant response rating [3, 13]: 100
- Pigweed plant response rating [3, 14]: 100
- Plant response rating, Pigweed [3, 15]: 100
- Plant response rating, Ragweed [4, 12]: 90
- Ragweed plant response rating [4, 13]: 100
- Ragweed plant response rating [4, 14]: 90
- Plant response rating, Ragweed [4, 15]: 90
- Plant response rating, Wheat ([5]; 125 g ai/ha, visual rating after approx. 10 d, 0 to 100 scale (0 no effect, 100 complete control)): 50
- Wheat plant response rating ([5]; 500 g ai/ha, 0 to 100 scale, 0 is no effect, 100 is complete control): 80
- Blackgrass plant response rating [6, 16]: 50
- Plant response rating, Blackgrass [6, 17]: 70
- Plant response rating, Blackgrass [6, 18]: 85
- Plant response rating, Blackgrass [6, 19]: 45
- Plant response rating, Blackgrass [6, 20]: 85
- Plant response rating, Blackgrass [6, 21]: 90
- Blackgrass plant response rating [6, 22]: 90
- Blackgrass plant response rating [6, 23]: 60
- Corn plant response rating [7, 16]: 10
- Plant response rating, Corn [7, 17]: 10
- Plant response rating, Corn [7, 18]: 25
- Plant response rating, Corn [7, 19]: 0
- Plant response rating, Corn [7, 20]: 0
- Plant response rating, Corn [7, 21]: 30
- Corn plant response rating [7, 22]: 65
- Corn plant response rating [7, 23]: 30
- Morningglory plant response rating [8, 16]: 100
- Plant response rating, Morningglory [8, 17]: 100
- Plant response rating, Morningglory [8, 18]: 100
- Plant response rating, Morningglory [8, 19]: 85
- Plant response rating, Morningglory [8, 20]: 90
- Plant response rating, Morningglory [8, 21]: 95
- Morningglory plant response rating [8, 22]: 98
- Morningglory plant response rating [8, 23]: 100
- Pigweed plant response rating [9, 16]: 90
- Plant response rating, Pigweed [9, 17]: 98
- Plant response rating, Pigweed [9, 18]: 98
- Plant response rating, Pigweed [9, 19]: 100
- Plant response rating, Pigweed [9, 20]: 100
- Plant response rating, Pigweed [9, 21]: 100
- Pigweed plant response rating [9, 22]: 100
- Pigweed plant response rating [9, 23]: 98
- Ryegrass, Italian plant response rating [10, 16]: 85
- Plant response rating, Ryegrass, Italian [10, 17]: 95
- Plant response rating, Ryegrass, Italian [10, 18]: 95
- Plant response rating, Ryegrass, Italian [10, 19]: 85
- Plant response rating, Ryegrass, Italian [10, 20]: 90
- Plant response rating, Ryegrass, Italian [10, 21]: 95
- Ryegrass, Italian plant response rating [10, 22]: 95
- Ryegrass, Italian plant response rating [10, 23]: 90
- Velvetleaf plant response rating [11, 16]: 70
- Plant response rating, Velvetleaf [11, 17]: 85
- Plant response rating, Velvetleaf [11, 18]: 90
- Plant response rating, Velvetleaf [11, 20]: 90
- Plant response rating, Velvetleaf [11, 21]: 100
- Velvetleaf plant response rating [11, 22]: 100
- Velvetleaf plant response rating [11, 23]: 85
